In patent publication EP4792822A1, “USE OF PEPTIDE AMIDE COMPOUND IN PREPARATION OF DRUG FOR […] AND VOMITING” (Haisco Pharmaceutical Group Co., Ltd., priority 2023, dated 2025):

Tested on: subjects undergoing elective laparoscopic abdominal surgery under general anaesthesia
Assay: Example 1: phase III, placebo-controlled clinical study of compound 1 injection for postoperative analgesia (morphine rescue; nausea and vomiting recorded)
Format: in vivo, patients
Description: This study was a multicentre, randomised, double-blind, placebo-controlled phase III clinical study conducted in China to evaluate the efficacy and safety of compound 1 injection for postoperative analgesia in subjects undergoing elective laparoscopic abdominal surgery under general anaesthesia. […] subjects undergoing elective laparoscopic abdominal surgery under general anaesthesia were enrolled and randomised to two groups: the compound 1 group (136 subjects) and the placebo group (135 subjects). All subjects received an intravenous injection of compound 1 injection or placebo injection within 5 min after the completion of the first NRS score assessment, and the end time of the first postoperative administration was recorded as 0 min. At 8 h and 16 h after the end of the first administration, within a time window of ±15 min, a single corresponding dose of the compound 1 injection or placebo injection was administered intravenously to the subjects.
Resting NRS score assessments were performed in subjects within 5 min before the first postoperative administration, and at 15 min ± 5 min, 30 min ± 5 min, 1 h ± 5 min, 2 h ± 15 min, 4 h ± 15 min, 8 h (within 30 min before the second postoperative administration), 12 h ± 30 min, 16 h (within 30 min before the last postoperative administration), 20 h ± 30 min, and 24 h ± 1 h after the first postoperative administration. The NRS score for resting pain refers to the NRS score assessed when the subject is at rest (e.g., sitting or lying still). If the subject was unconscious at a scheduled NRS assessment time point, the score was recorded as follows: if the previous NRS score was ≥ 2, the current NRS score was recorded as 2; if the previous NRS score was < 2, the current NRS score was recorded as the previous score. Meanwhile, it was documented that the subject was unconscious at the time of assessment.
A morphine injection was administered via intravenous injection for rescue treatment if the resting pain NRS score was ≥ 4 at any pain assessment time point after the first postoperative administration, or if the subject complained of pain at any time point and the resting pain NRS score was ≥ 4. It was recommended that the time from the subject's NRS assessment to actual administration of morphine injection be ≤ 30 min; an initial intravenous dose of 3 mg be administered, followed by additional doses as needed. It was also recommended that the interval between two rescue treatments be ≥ 2 h and that the interval between rescue medication and study drug administration be ≥ 1 h.
Prophylactic antiemetic treatment was prohibited during the study. After the first postoperative administration, the investigator administered antiemetic agents based on the occurrence of nausea and vomiting in the subject, and the dosage of the antiemetic agents was recorded. Tropisetron was the preferred antiemetic agent (an initial intravenous dose of 2.5 mg, followed by additional doses as needed, not to exceed 10 mg within 24 h). If tropisetron was insufficiently effective, other agents were used by the investigator in accordance with routine clinical practice.
Abdominal surgery, female sex, non-smoking status, and postoperative opioid use are known as risk factors leading to postoperation nausea and vomiting (PONV). Two studies of compound 1 injection for postoperative analgesia after abdominal surgery were completed. Morphine (Example 1) and flurbiprofen axetil (Example 2) were used as rescue analgesic agents in the two studies, respectively, and prophylactic antiemetic treatment was prohibited during the studies. The study results were summarised as follows.

[1] = Example 1, No morphine use (no rescue analgesia), N = 91
[2] = Example 1, No morphine use, listed as compound 1
[3] = Example 1, Overall, safety analysis set, N = 136
[4] = Example 1, Overall, safety analysis set, N = 136, listed as compound 1
[5] = within 0-12 h and 0-24 h after the first postoperative administration, compared with placebo
[6] = within 0-24 h after the first administration, compared with placebo

CC(=O)N1CC2(CCN(C(=O)[C@@H](CCCCN)NC(=O)[C@@H](CC(C)C)NC(=O)[C@@H](Cc3ccccc3)NC(=O)[C@H](N)Cc3ccccc3)CC2)C1 [Compound 1, (2R)-N-[(1R)-1-(2-acetyl-2,7-diazaspiro[3.5]nonane-7-carbonyl)-5-amino-pentyl]-2-[[(2R)-2-[[(2R)-2-amino-3-phenyl-propionyl]amino]-3-phenylpropionyl]amino]-4-methyl-pentanamide]
overall safety and tolerability (Example 1): good overall safety and tolerability
Change in incidence of nausea relative to placebo (Example 1, No morphine use): 25.7% reduction
Change in incidence of vomiting relative to placebo (Example 1, No morphine use): 20.1% reduction
Nausea (incidence) [1]: 16.5%
Vomiting (incidence) [1]: 18.7%
Change in incidence of nausea relative to placebo [2]: 25.7 % reduction
Change in incidence of vomiting relative to placebo [2]: 20.1 % reduction
Change in incidence of nausea relative to placebo (Example 1, Overall): 35.8% reduction
Change in incidence of vomiting relative to placebo (Example 1, Overall): 52.8% reduction
Nausea (incidence) [3]: 17.6%
Vomiting (incidence) [3]: 15.4%
Nausea (incidence) [4]: 17.6%
Vomiting (incidence) [4]: 15.4%
PID at each time point (compared with placebo): significantly lower than those in the placebo group
SPID0-12 h after the first postoperative administration (compared with placebo): significantly lower than those in the placebo group
SPID0-24 h after the first postoperative administration (compared with placebo): superior to that in the placebo group
duration of analgesia (compared with placebo): significantly longer than those in the placebo group
incidences of adverse reactions (compared with placebo): comparable to those in the placebo group
incidences of adverse reactions (including nausea and vomiting) (compared with placebo): significantly lower than those in the placebo group
incidences of the main TEAEs (including nausea and vomiting) (compared with placebo): significantly lower than those in the placebo group
subject and investigator satisfaction scores for postoperative analgesia (compared with placebo): significantly higher than those in the placebo group
time to the first use of rescue analgesic agents (compared with placebo): significantly longer than those in the placebo group
effect on PONV in patients after abdominal surgery (summary of both Phase III studies (Example 1)): preventive and/or alleviating effect on PONV
mean cumulative dosage of rescue analgesic agents [5]: significantly lower than those in the placebo group
proportion of subjects with NRS scores ≤ 3 [5]: significantly higher than those in the placebo group
mean cumulative dosage of antiemetic agents [6]: significantly lower than those in the placebo group
proportion of subjects using antiemetic agents [6]: significantly lower than those in the placebo group
proportion of subjects using rescue analgesic agents (within 0-24 h after the first postoperative administration, compared with placebo): significantly lower than those in the placebo group
